The subject of this data set is rodent lifetime carcinogenesis bioassay, tumor incidence TD50. Briefly: chronic cancer bioassays in animals – CPDB, compiled studies (AID 1745844).
Where [1] appears, read: mouse, strain B6C3F1, females, in feed, site: any site (literature study), lesion: several types, types named in the paper, dosed 103 weeks, study length 105 weeks.
Where [2] appears, read: mouse, strain B6C3F1, females, in feed, site: liver, lesion: hepatocellular adenoma + hepatocellular carcinoma + neoplastic nodule, dosed 103 weeks, study length 105 weeks.
[3] abbreviates: mouse, strain B6C3F1, females, in feed, site: lung, lesion: alveolar/bronchiolar adenoma + alveolar/bronchiolar carcinoma, dosed 103 weeks, study length 105 weeks.
Setting [4] is: mouse, strain B6C3F1, males, in feed, site: lung, lesion: alveolar/bronchiolar adenoma + alveolar/bronchiolar carcinoma, dosed 103 weeks, study length 104 weeks.
Setting [5] is: rat, strain Fischer 344, males, in feed, site: any site (literature study), lesion: several types, types named in the paper, dosed 103 weeks, study length 105 weeks.

Several values for one entry are separate records, joined by “and”; a condition that tells them apart may be missing. Equal entries are not always repeated. Activity calls are given as the source filed them. No rule for the calls is given here.

Take `Cc1cc(N=Nc2c(O)ccc3ccccc23)c(S(=O)(=O)O)cc1Cl`: the TD50 is 18200 mg/kg/day (inactive) under setting [1]; 9240 mg/kg/day under setting [2]; 9200 mg/kg/day under setting [3]; 2120 mg/kg/day (inactive) (mouse, strain B6C3F1, males, in feed, site: any site (literature study), lesion: several types, types named in the paper, dosed 103 weeks, study length 104 weeks); 781 mg/kg/day (mouse, strain B6C3F1, males, in feed, site: liver, lesion: hepatocellular adenoma + hepatocellular carcinoma + neoplastic nodule, dosed 103 weeks, study length 104 weeks); 5390 mg/kg/day under setting [4]. Further, the TD50 (rat, strain Fischer 344, females, in feed, site: liver, lesion: hepatocellular adenoma + hepatocellular carcinoma + neoplastic nodule, dosed 103 weeks, study length 104 weeks) was 1140 mg/kg/day; the TD50 (rat, strain Fischer 344, females, in feed, site: liver, lesion: neoplastic nodule, dosed 103 weeks, study length 104 weeks) is 1140 mg/kg/day; the TD50 (rat, strain Fischer 344, males, in feed, site: any site (literature study), lesion: several types, types named in the paper, dosed 103 weeks, study length 104 weeks) was 331 mg/kg/day; the TD50 (rat, strain Fischer 344, males, in feed, site: liver + spleen, lesion: hepatocellular carcinoma + neoplastic nodule + fibrosarcoma + leiomyosarcoma + osteosarcoma + sarcoma, NOS, dosed 103 weeks, study length 104 weeks) turned out to be 104 mg/kg/day; the TD50 (rat, strain Fischer 344, males, in feed, site: liver, lesion: hepatocellular adenoma + hepatocellular carcinoma + neoplastic nodule, dosed 103 weeks, study length 104 weeks) was 357 mg/kg/day; the TD50 (rat, strain Fischer 344, males, in feed, site: liver, lesion: hepatocellular carcinoma + neoplastic nodule, dosed 103 weeks, study length 104 weeks) is 357 mg/kg/day. Also, the TD50 is 265 mg/kg/day (rat, strain Fischer 344, males, in feed, site: liver, lesion: neoplastic nodule, dosed 103 weeks, study length 104 weeks); 146 mg/kg/day (rat, strain Fischer 344, males, in feed, site: spleen, lesion: fibrosarcoma + leiomyosarcoma + osteosarcoma + sarcoma, NOS, dosed 103 weeks, study length 104 weeks); 211 mg/kg/day (rat, strain Fischer 344, males, in feed, site: spleen, lesion: fibrosarcoma, dosed 103 weeks, study length 104 weeks); 728 mg/kg/day (rat, strain Fischer 344, males, in feed, site: spleen, lesion: osteosarcoma, dosed 103 weeks, study length 104 weeks); 28600 mg/kg/day (inactive) (rat, strain Osborne-Mendel, males, in feed, site: testis, lesion: interstitial-cell adenoma, dosed 108 weeks, study length 108 weeks). Besides, the carcinogen call is “negative (inactive)” (rat, strain Osborne-Mendel, females, in feed, site: pituitary gland, lesion: adenoma, dosed 108 weeks, study length 108 weeks) and “negative (inactive)” (rat, strain Osborne-Mendel, males, in feed, site: all sites, lesion: fibrosarcoma, dosed 108 weeks, study length 108 weeks).
In the case of `CC1(C)[C@H](C(=O)O[C@H](C#N)c2cccc(Oc3ccccc3)c2)[C@@H]1C=C(Br)Br`, the carcinogen call is “negative (inactive)” (mouse, strain C57BL/6, females, by gavage, site: all sites, lesion: lymphoma, dosed 104 weeks, study length 114 weeks); “negative (inactive)” (mouse, strain C57BL/6, females, by gavage, site: any site (literature study), lesion: one or several types, types not named, dosed 104 weeks, study length 114 weeks); “negative (inactive)” (mouse, strain C57BL/6, females, by gavage, site: liver, lesion: hepatoma, dosed 104 weeks, study length 114 weeks); “negative (inactive)” (mouse, strain C57BL/6, females, by gavage, site: lung, lesion: adenoma, dosed 104 weeks, study length 114 weeks); “negative (inactive)” (mouse, strain C57BL/6, males, by gavage, site: any site (literature study), lesion: one or several types, types not named, dosed 104 weeks, study length 114 weeks); “negative (inactive)” (mouse, strain C57BL/6, males, by gavage, site: liver, lesion: hepatoma, dosed 104 weeks, study length 114 weeks). In addition, the carcinogen call is “negative (inactive)” (mouse, strain C57BL/6, males, by gavage, site: lung, lesion: adenoma, dosed 104 weeks, study length 114 weeks); “negative (inactive)” (rat, strain BD VI, females, by gavage, site: liver, lesion: hepatoma, dosed 104 weeks, study length 114 weeks); “negative (inactive)” (rat, strain BD VI, males, by gavage, site: any site (literature study), lesion: one or several types, types not named, dosed 104 weeks, study length 114 weeks); “negative (inactive)” (rat, strain BD VI, males, by gavage, site: liver, lesion: hepatoma, dosed 104 weeks, study length 114 weeks). In addition, the TD50 reads like this: (rat, strain BD VI, females, by gavage, site: any site (literature study), lesion: one or several types, types not named, dosed 104 weeks, study length 114 weeks) 36.1 mg/kg/day (inactive); (rat, strain BD VI, females, by gavage, site: thyroid gland, lesion: adenoma, dosed 104 weeks, study length 114 weeks) 16.9 mg/kg/day (inactive); (rat, strain BD VI, males, by gavage, site: thyroid gland, lesion: adenoma, dosed 104 weeks, study length 114 weeks) 4.6 mg/kg/day (inactive).
As for `CCCCCCCCCCC(C)c1ccc(S(=O)(=O)O)cc1` (stereo not drawn), the carcinogen call is, setting by setting: (rat, strain Slc-Wistar, females, in feed, site: preputial gland, lesion: several types, types named in the paper, dosed 142 weeks, study length 148 weeks) “negative (inactive)”; (rat, strain Slc-Wistar, males, in feed, site: preputial gland, lesion: several types, types named in the paper, dosed 127 weeks, study length 139 weeks) “negative (inactive)”.
Consider `CC(Oc1c(Cl)cccc1Cl)C1=NCCN1` (stereo not drawn), for which the TD50 (rat, strain Long-Evans, females, in feed, site: any site (literature study), lesion: one or several types, types not named, dosed 52 weeks, study length 52 weeks) was 2.3 mg/kg/day (inactive) and the TD50 (rat, strain Long-Evans, males, in feed, site: any site (literature study), lesion: one or several types, types not named, dosed 52 weeks, study length 52 weeks) was 2.3 mg/kg/day (inactive).
Consider `Nc1ccc(O)c([N+](=O)[O-])c1`, for which the carcinogen call under setting [1] is “negative (inactive)” and the carcinogen call (mouse, strain B6C3F1, males, in feed, site: any site (literature study), lesion: several types, types named in the paper, dosed 103 weeks, study length 105 weeks) is “negative (inactive)”. Further, the TD50 is, setting by setting: under setting [2], 3650 mg/kg/day; (mouse, strain B6C3F1, males, in feed, site: liver, lesion: hepatocellular adenoma + hepatocellular carcinoma + neoplastic nodule, dosed 103 weeks, study length 105 weeks) 2250 mg/kg/day; (rat, strain Fischer 344, females, in feed, site: urinary bladder, lesion: transitional-cell carcinoma, dosed 103 weeks, study length 105 weeks) 1880 mg/kg/day; under setting [5], 270 mg/kg/day; (rat, strain Fischer 344, males, in feed, site: urinary bladder, lesion: transitional-cell carcinoma, dosed 103 weeks, study length 105 weeks) 309 mg/kg/day.
With `CCC(CC)C(=O)NC(N)=O`, where the note is “rat, strain Fischer 344, males, in feed, site: kidney, lesion: tubular-cell adenoma, dosed 71 weeks, study length 71 weeks”, the TD50 is 30.4 mg/kg/day.
As to `COC(=O)c1ccc(C(=O)OC)cc1`, the TD50 by setting is: under setting [1], 4340 mg/kg/day (inactive); under setting [3], 44000 mg/kg/day; under setting [4], 1160 mg/kg/day (inactive) and 1160 mg/kg/day; (rat, strain Fischer 344, females, in feed, site: any site (literature study), lesion: several types, types named in the paper, dosed 103 weeks, study length 105 weeks) 342 mg/kg/day (inactive). The carcinogen call under setting [5] is “negative (inactive)”.
Consider `CCC[N+](=O)[O-]`, for which the carcinogen call was “negative (inactive)” (rat, strain Long-Evans BLU:(LE), females, inhaled, site: liver, lesion: hepatocellular carcinoma, dosed 52 weeks, study length 52 weeks); “negative (inactive)” (rat, strain Long-Evans BLU:(LE), females, inhaled, site: liver, lesion: hepatocellular carcinoma, dosed 52 weeks, study length 93 weeks); “negative (inactive)” (rat, strain Long-Evans BLU:(LE), females, inhaled, site: liver, lesion: hepatocellular carcinoma, dosed 78 weeks, study length 78 weeks); “negative (inactive)” (rat, strain Long-Evans BLU:(LE), females, inhaled, site: liver, lesion: hepatocellular carcinoma, dosed 93 weeks, study length 93 weeks); “negative (inactive)” (rat, strain Long-Evans BLU:(LE), males, inhaled, site: liver, lesion: hepatocellular carcinoma, dosed 52 weeks, study length 52 weeks); “negative (inactive)” (rat, strain Long-Evans BLU:(LE), males, inhaled, site: liver, lesion: hepatocellular carcinoma, dosed 52 weeks, study length 93 weeks). Moreover, the carcinogen call was “negative (inactive)” (rat, strain Long-Evans BLU:(LE), males, inhaled, site: liver, lesion: hepatocellular carcinoma, dosed 78 weeks, study length 78 weeks) and “negative (inactive)” (rat, strain Long-Evans BLU:(LE), males, inhaled, site: liver, lesion: hepatocellular carcinoma, dosed 93 weeks, study length 93 weeks). Besides, the TD50 (rat, strain Sprague-Dawley, males, by gavage, site: liver, lesion: hepatocellular adenoma, dosed 26 weeks, study length 77 weeks) is 0.872 mg/kg/day (inactive).

The values are drawn from PubChem BioAssay AID1745844 (Carcinogenic Potency Database (CPDB), 2022).
